As usually defined, the IC50 is the concentration that gives 50% inhibition.

Bounds are passed on as bounds.

This note sets out measurements from patent US10351575B2, “Bicyclic urea, thiourea, guanidine and cyanoguanidine compounds useful for the treatment of pain” (Array BioPharma Inc., priority 2012, dated 2019).

In this assay the target is His-tagged recombinant human TrkA (Homo sapiens (Human), UniProt P04629). The assay is described as follows: TrkA LanthaScreen Eu Kinase Binding Assay. To be noted: averaged IC50; TR-FRET binding, 60 min, 22° C.; read-out: TrkA Enzyme IC50. The method, then: TrkA binding activity was determined in a TrkA LanthaScreen™ Eu Kinase Binding Assay. 5 nM His-tagged recombinant human TrkA (6HIS tagged cytoplasmic domain from Invitrogen, Catalog No. PV3144) was incubated with 4 nM Alexa-Fluor® Tracer 236 (Invitrogen Cat. No. PV5592), 2 nM biotinylated anti-His (Invitrogen Cat. No. PV6090), and 2 nM europium-labeled Streptavidin (Invitrogen Cat. No. PV5899), in buffer (25 mM MOPS, pH 7.5, 5 mM MgCl2, 0.005% Triton X-100). Three fold serial dilutions of compounds of the invention in DMSO were added to a final percentage of 2% DMSO. After 60-minute incubation at 22° C., the reaction was measured using the EnVision mutlimode plate reader (PerkinElmer) via TR-FRET dual wavelength detection at […]. The percent of control was calculated using a ratiometric emission factor. The IC50 values were determined by fitting a four parameter model to the percent of control data.
Sequence of His-tagged recombinant human TrkA (P04629 440-796): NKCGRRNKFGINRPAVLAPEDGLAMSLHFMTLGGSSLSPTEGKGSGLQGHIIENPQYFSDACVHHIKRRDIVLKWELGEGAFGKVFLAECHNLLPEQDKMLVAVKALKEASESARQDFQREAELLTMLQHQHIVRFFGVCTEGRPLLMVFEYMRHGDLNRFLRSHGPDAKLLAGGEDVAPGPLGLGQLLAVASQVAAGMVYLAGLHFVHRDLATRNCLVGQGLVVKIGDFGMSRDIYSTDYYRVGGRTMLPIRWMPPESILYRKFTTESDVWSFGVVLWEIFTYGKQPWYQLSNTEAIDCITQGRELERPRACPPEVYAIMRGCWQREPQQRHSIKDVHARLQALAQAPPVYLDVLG
For orientation: In TR-FRET formats the signal depends on donor and acceptor labels being close together.
As for `CNC(=O)c1nn(-c2ccccc2)c(NC(=O)N[C@@H]2c3ccccc3C(C)(C)C[C@H]2O)c1C` (relative stereo) [Example 124, 5-(3-(trans-2-hydroxy-4,4-dimethyl-1,2,3,4-tetrahydronaphthalen-1-yl)ureido)-N,4-dimethyl-1-phenyl-1H-pyrazole-3-carboxamide], the IC50 was < 100 nM.
As for `CNC(=O)c1nn(-c2ccccc2)c(NC(=O)N[C@@H]2c3cc(Cl)ccc3C(C)(C)C[C@H]2O)c1C` (relative stereo) [Example 125, 5-(3-(trans-7-chloro-2-hydroxy-4,4-dimethyl-1,2,3,4-tetrahydronaphthalen-1-yl)ureido)-N,4-dimethyl-1-phenyl-1H-pyrazole-3-carboxamide], the figure is < 100 nM.
As for `Cc1nn(-c2ccccc2)c(NC(=O)N[C@@H]2c3ccccc3CCC[C@H]2O)c1C` (relative stereo) [Example 126, 1-(3,4-dimethyl-1-phenyl-1H-pyrazol-5-yl)-3-(trans-6-hydroxy-6,7,8,9-tetrahydro-5H-benzo[7]annulen-5-yl)urea], the figure is 100 to 1000 nM; as for `Cc1ncc(-c2nn(-c3ccccc3)c(NC(=O)N[C@@H]3c4ccccc4CCC[C@H]3O)c2C)cn1` (relative stereo) [Example 127, 1-(trans-6-hydroxy-6,7,8,9-tetrahydro-5H-benzo[7]annulen-5-yl)-3-(4-methyl-3-(2-methylpyrimidin-5-yl)-1-phenyl-1H-pyrazol-5-yl)urea], 100 to 1000 nM; as for `COc1ncc(-c2nn(-c3ccccc3)c(NC(=O)N[C@@H]3c4ccccc4CCC[C@H]3O)c2C)cn1` (relative stereo) [Example 128, 1-(trans-6-hydroxy-6,7,8,9-tetrahydro-5H-benzo[7]annulen-5-yl)-3-(3-(2-methoxypyrimidin-5-yl)-4-methyl-1-phenyl-1H-pyrazol-5-yl)urea], 100 to 1000 nM.
Turning to `Cc1c(-c2cnn(C)c2)nn(-c2ccccc2)c1NC(=O)N[C@@H]1c2ccccc2C2(CCC2)[C@H]1O` (relative stereo) [Example 142, 1-(1′,4-dimethyl-1-phenyl-1H,1′H-[3,4′-bipyrazol]-5-yl)-3-(trans-2′-hydroxy-2′,3′-dihydrospiro[cyclobutane-1,1′-inden]-3′-yl)urea], the half-maximal inhibitory concentration (IC50) was < 100 nM.
Regarding `COc1nn(-c2ccccc2)c(NC(=O)N[C@@H]2c3ccccc3C3(CC3)C[C@H]2O)c1C` (relative stereo) [Example 152, 1-(trans-3′-hydroxy-3′,4′-dihydro-2′H-spiro[cyclopropane-1,1′-naphthalen]-4′-yl)-3-(3-methoxy-4-methyl-1-phenyl-1H-pyrazol-5-yl)urea], the IC50 is < 100 nM.
For `COc1nn(-c2ccccc2)c(NC(=O)N[C@@H]2c3ccccc3OC3(CCC3)[C@H]2O)c1C` (relative stereo) [Example 159, 1-(trans-3-hydroxyspiro[chroman-2,1′-cyclobutan]-4-yl)-3-(3-methoxy-4-methyl-1-phenyl-1H-pyrazol-5-yl)urea], the IC50 was < 100 nM.
As for `Cc1c(-c2cnn(C)c2)nn(-c2ccccc2)c1NC(=O)N[C@@H]1c2ccccc2OC2(CCC2)[C@H]1O` (relative stereo) [Example 160, 1-(1′,4-dimethyl-1-phenyl-1H,1′H-[3,4′-bipyrazol]-5-yl)-3-(trans-3-hydroxyspiro[chroman-2,1′-cyclobutan]-4-yl)urea], the figure is < 100 nM; as for `Cc1c(-c2cnn(C)c2)nn(-c2ccccc2)c1NC(=O)N[C@H]1c2ccccc2C2(CC2)[C@@H]1O` (stereo in doubt) [Example 138, 1-(1′,4-dimethyl-1-phenyl-1H,1′H-[3,4′-bipyrazol]-5-yl)-3-((2′S,3′S)-2′-hydroxy-2′,3′-dihydrospiro[cyclopropane-1,1′-inden]-3′-yl)urea], 100 to 1000 nM.
Turning to `Cc1c(-c2cnn(C)c2)nn(-c2ccccc2)c1NC(=O)NC1CCCc2ccccc21` (stereo not drawn) [Example 1, 1-(1′,4-dimethyl-1-phenyl-1H,1′H-3,4′-bipyrazol-5-yl)-3-(1,2,3,4-tetrahydronaphthalen-1-yl)urea], the half-inhibitory concentration (IC50) was < 100 nM.
As for `O=C(Nc1c2c(nn1-c1ccccc1)CCC2)N[C@H]1CCCc2ccccc21` [Example 3, (S)-1-(2-phenyl-2,4,5,6-tetrahydrocyclopenta[c]pyrazol-3-yl)-3-(1,2,3,4-tetrahydronaphthalen-1-yl)urea], the figure is < 100 nM; as for `Cc1c(-c2cnn(C)c2)nn(-c2ccccc2)c1NC(=O)N[C@@H]1CCCc2ccccc21` [Example 4, (R)-1-(1′,4-dimethyl-1-phenyl-1H,1′H-3,4′-bipyrazol-5-yl)-3-(1,2,3,4-tetrahydronaphthalen-1-yl)urea], 100 to 1000 nM; as for `COc1ccc2c(c1)CCCC2NC(=O)Nc1c(C)c(-c2cnn(C)c2)nn1-c1ccccc1` (stereo not drawn) [Example 5, 1-(1′,4-dimethyl-1-phenyl-1H,1′H-3,4′-bipyrazol-5-yl)-3-(6-methoxy-1,2,3,4-tetrahydronaphthalen-1-yl)urea], 100 to 1000 nM.
As for `Cc1c(-c2cnn(C)c2)nn(-c2ccccc2)c1NC(=O)NC1CCCCc2ccccc21` (stereo not drawn) [Example 6, 1-(1′,4-dimethyl-1-phenyl-1H,1′H-3,4′-bipyrazol-5-yl)-3-(6,7,8,9-tetrahydro-5H-benzo[7]annulen-5-yl)urea], the figure is < 100 nM.
For `Cc1c(-c2cnn(C)c2)nn(-c2ccccc2)c1NC(=O)NC1CCOc2ccccc21` (stereo not drawn) [Example 7, 1-(chroman-4-yl)-3-(1′,4-dimethyl-1-phenyl-1H,1′H-3,4′-bipyrazol-5-yl)urea], the IC50 fell in the range of 100 to 1000 nM.
Consider `Cc1c(-c2cnn(C)c2)nn(-c2ccccc2)c1NC(=O)NC1COCc2ccccc21` (stereo not drawn) [Example 8, 1-(1′,4-dimethyl-1-phenyl-1H,1′H-3,4′-bipyrazol-5-yl)-3-(isochroman-4-yl)urea], for which the IC50 was 100 to 1000 nM.
Consider `Cc1c(-c2cnn(C)c2)nn(-c2ccccc2)c1NC(=O)NC1CC(C)(C)Oc2ccccc21` (stereo not drawn) [Example 9, 1-(1′,4-dimethyl-1-phenyl-1H,1′H-3,4′-bipyrazol-5-yl)-3-(2,2-dimethylchroman-4-yl)urea], for which the IC50 lay within 100 to 1000 nM.
Take `Cc1c(-c2cnn(C)c2)nn(-c2ccccc2)c1NC(=O)NC1COCc2ccc(Br)cc21` (stereo not drawn) [Example 10, 1-(6-bromoisochroman-4-yl)-3-(1′,4-dimethyl-1-phenyl-1H,1′H-[3,4′-bipyrazol]-5-yl)urea]: the IC50 was < 100 nM.
Regarding `Cc1nn(-c2ccccc2)c(NC(=O)N[C@H]2CCCc3ccccc32)c1Br` [Example 11, (S)-1-(4-bromo-3-methyl-1-phenyl-1H-pyrazol-5-yl)-3-(1,2,3,4-tetrahydronaphthalen-1-yl)urea], the IC50 is < 100 nM.
Regarding `CCOc1nn(-c2ccccc2)c(NC(=O)NC2CCOc3cc(F)ccc32)c1C` (stereo not drawn) [Example 13, 1-(3-ethoxy-4-methyl-1-phenyl-1H-pyrazol-5-yl)-3-(7-fluorochroman-4-yl)urea], the IC50 was in the range of 100 to 1000 nM.
As for `Cc1c(-c2cnn(C)c2)nn(-c2ccccc2)c1NC(=O)NC1CC(C)Oc2ccc(F)cc21` (stereo not drawn) [Example 14, 1-(1′,4-dimethyl-1-phenyl-1H,1′H-[3,4′-bipyrazol]-5-yl)-3-(6-fluoro-2-methylchroman-4-yl)urea], the figure is 100 to 1000 nM.
As for `Cc1c(-c2cnn(C)c2)nn(-c2ccccc2)c1NC(=O)NC1CCCc2ccc(Br)cc21` (stereo not drawn) [Example 15, 1-(7-bromo-1,2,3,4-tetrahydronaphthalen-1-yl)-3-(1′,4-dimethyl-1-phenyl-1H,1′H-[3,4′-bipyrazol]-5-yl)urea], the figure is < 100 nM.
As for `Cc1c(-c2cnn(C)c2)nn(-c2ccccc2)c1NC(=O)NC1CCC(C)(C)c2ccc(Br)cc21` (stereo not drawn) [Example 16, 1-(7-bromo-4,4-dimethyl-1,2,3,4-tetrahydronaphthalen-1-yl)-3-(1′,4-dimethyl-1-phenyl-1H,1′H-[3,4′-bipyrazol]-5-yl)urea], the figure is < 100 nM; as for `COCCN1CCc2ccccc2C(NC(=O)Nc2c(C)c(-c3cnn(C)c3)nn2-c2ccccc2)C1` (stereo not drawn) [Example 17, 1-(1′,4-dimethyl-1-phenyl-1H,1′H-3,4′-bipyrazol-5-yl)-3-(3-(2-methoxyethyl)-2,3,4,5-tetrahydro-1H-benzo[d]azepin-1-yl)urea], 100 to 1000 nM; as for `Cc1c(-c2cnn(C)c2)nn(-c2ccccc2)c1NC(=O)NC1CN(CC(F)(F)F)CCc2ccccc21` (stereo not drawn) [Example 18, 1-(1′,4-dimethyl-1-phenyl-1H,1′H-3,4′-bipyrazol-5-yl)-3-(3-(2,2,2-trifluoroethyl)-2,3,4,5-tetrahydro-1H-benzo[d]azepin-1-yl)urea], 100 to 1000 nM.
On to `CC(=O)N1CCc2ccccc2C(NC(=O)Nc2c(C)c(-c3cnn(C)c3)nn2-c2ccccc2)C1` (stereo not drawn) [Example 19, 1-(3-acetyl-2,3,4,5-tetrahydro-1H-benzo[d]azepin-1-yl)-3-(1′,4-dimethyl-1-phenyl-1H,1′H-3,4′-bipyrazol-5-yl)urea], for which the IC50 lay in the range of 100 to 1000 nM.
`CCC(=O)N1CCc2ccccc2C(NC(=O)Nc2c(C)c(-c3cnn(C)c3)nn2-c2ccccc2)C1` (stereo not drawn) [Example 20, 1-(1′,4-dimethyl-1-phenyl-1H,1′H-3,4′-bipyrazol-5-yl)-3-(3-propionyl-2,3,4,5-tetrahydro-1H-benzo[d]azepin-1-yl)urea]: the half-inhibitory concentration (IC50) was 100 to 1000 nM.
`CCCN1CCc2ccccc2C(NC(=O)Nc2c(C)c(-c3cnn(C)c3)nn2-c2ccccc2)C1` (stereo not drawn) [Example 21]: the IC50 was in the range of 100 to 1000 nM.
With `CCN1Cc2ccccc2C(NC(=O)Nc2c3c(nn2-c2ccccc2)CCC3)C1` (stereo not drawn) [Example 22, 1-(2-ethyl-1,2,3,4-tetrahydroisoquinolin-4-yl)-3-(2-phenyl-2,4,5,6-tetrahydrocyclopenta[c]pyrazol-3-yl)urea], the IC50 lay within 100 to 1000 nM.
